What follows are compounds tested against Protein Wnt-3a (Human, UniProt P56704) (assay: WNT Pathway Reporter Gene Assay).
Sequence of Protein Wnt-3a (P56704 whole entry): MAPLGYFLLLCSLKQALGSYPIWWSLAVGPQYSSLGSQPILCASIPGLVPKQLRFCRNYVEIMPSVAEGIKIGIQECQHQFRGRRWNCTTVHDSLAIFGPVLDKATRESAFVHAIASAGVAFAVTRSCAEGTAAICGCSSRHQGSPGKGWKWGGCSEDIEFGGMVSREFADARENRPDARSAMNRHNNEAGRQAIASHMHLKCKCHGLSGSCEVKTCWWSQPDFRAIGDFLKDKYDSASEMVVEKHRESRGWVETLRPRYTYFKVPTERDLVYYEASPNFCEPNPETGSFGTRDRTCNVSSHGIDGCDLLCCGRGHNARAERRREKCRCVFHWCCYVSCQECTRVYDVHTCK
Procedure: Materials and Methods: NIH3T3 mouse fibroblast cells (American Type Culture Collection, Manassas, Va.) were transfected with a plasmid containing a luciferase gene driven by 5 copies of TCF elements. Stale cells selected with 1 μg/mL of Zeocin (Gibco/Invitrogen, Carlsbad, Calif.) are cultured in Dulbecco's modified Eagle's medium (Invitrogen, Carlsbad, Calif.) supplemented with 10% FBS (Invitrogen), 50 unit/mL penicillin and 50 μg/mL of streptomycin (Invitrogen) at 37° C. with 5% CO2 in air atmosphere. […] After 16 hours, the firefly luciferase activities are measured with the Steady-Glo Luciferase Assay System (Promega). The cells were treated with different concentrations of compounds of this invention during the co-culture. […] To normalize for cell quantity and viability, CellTiter Glo assay is next performed in a duplicate plate.
`Cc1cc(-c2ccc(CNc3nccc4cc(-c5cnccn5)ncc34)cc2)ccn1` [US10285988, Compound 35] was tested, and the IC50 was under 3 nM. `Cc1cc(-c2ncc(CNc3nccc4cc(-c5cnccn5)ccc34)cc2C)ccn1` [US10285988, Compound 70] gave an IC50 of under 3 nM. In the case of `Cc1cc(-c2cc3ccnc(NCc4ccc(-c5ccnc(C)c5)c(C)c4)c3cn2)ccn1` [US10285988, Compound 2], the IC50 is reported as under 3 nM. `Cc1cc(-c2cc3ccnc(NCc4ccc(-c5ccnc(F)c5)c(F)c4)c3cn2)ccn1` [US10285988, Compound 28] gave an IC50 of under 3 nM. Work on `Cc1cc(-c2ccc(CNc3nccc4cc(-c5ccnc(C)c5)ncc34)cc2)ccn1` [US10285988, Compound 1] yielded an IC50 of under 3 nM.
